# Test results taken from ChEMBL document CHEMBL1773011, “New and more efficient multivalent glyco-ligands for asialoglycoprotein receptor of mammalian hepatocytes” (Bioorg Med Chem, 2011).
# Assay: Displacement of Eu-DTPA labeled ASOR from rat primary hepatocytes Asialoglycoprotein receptor after 20 mins by fluorometric analysis
# Assay type: cell-based
# Details: hepatocyte
row,IC50 [nM],SMILES
1,> 1000,NCCCCC(C(=O)NCCCCCCOC1O[C@H](CO)[C@@H](O[C@@H]2O[C@H](CO)[C@H](O)[C@H](O)[C@H]2O)[C@H](O)[C@H]1O)N(CC(=O)NCCCCCCOC1O[C@H](CO)[C@@H](O[C@@H]2O[C@H](CO)[C@H](O)[C@H](O)[C@H]2O)[C@H](O)[C@H]1O)CC(=O)NCCCCCCOC1O[C@H](CO)[C@@H](O[C@@H]2O[C@H](CO)[C@H](O)[C@H](O)[C@H]2O)[C@H](O)[C@H]1O (some centres undefined)
2,20,"CC(=O)NC1C(OCCCCCCNC(=O)CNC(=O)C[C@H](NC(=O)[C@H](CC(=O)NCC(=O)NCCCCCCOC2O[C@@H](CO)[C@@H](O)[C@@H](O)C2NC(C)=O)NC(=O)[C@@H](N)Cc2ccc(O)cc2)C(=O)NCC(=O)NCCCCCCOC2O[C@@H](CO)[C@@H](O)[C@@H](O)C2NC(C)=O)O[C@@H](CO)[C@@H](O)[C@H]1O (single isomer, unassigned)"
3,12,CC(=O)N[C@@H]1C(OCCCCCCNC(=O)C(CCCCNC(=O)OCc2ccccc2)N(CC(=O)NCCCCCCOC2O[C@H](CO)[C@H](O)[C@H](O)[C@H]2NC(C)=O)CC(=O)NCCCCCCOC2O[C@H](CO)[C@H](O)[C@H](O)[C@H]2NC(C)=O)O[C@@H](CO)[C@@H](O)[C@H]1O (stereo in doubt)

row,SMILES,IC50 [nM]
1,CC(=O)N[C@H]1C(OCCCCCCNC(=O)CNC(=O)CN(CC(=O)NCC(=O)NCCCCCCOC2O[C@H](CO)[C@H](O)[C@H](O)[C@H]2NC(C)=O)C(CCCCNC(=O)OCc2ccccc2)C(=O)NCC(=O)NCCCCCCOC2O[C@H](CO)[C@H](O)[C@H](O)[C@H]2NC(C)=O)O[C@H](CO)[C@H](O)[C@@H]1O (stereo in doubt),1
